Data taken from PubChem BioAssay (NCI).
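How tested: cells in 96-well plates exposed to compound for 48 hours at five concentrations. Here, GI50 denotes the concentration required for 50% inhibition of growth. Definition used: TGI = concentration required for complete inhibition of growth.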

Assays:
Assay in all cases: inhibition of tumour cell growth, NCI panel, 48 h
SF-539 CNS = tested on: SF-539 CNS
KM12 colon = tested on: KM12 colon
SK-MEL-5 melanoma = tested on: SK-MEL-5 melanoma
OVCAR-5 ovarian = tested on: OVCAR-5 ovarian
DU-145 prostate = tested on: DU-145 prostate
SF-268 CNS = tested on: SF-268 CNS
OVCAR-8 ovarian = tested on: OVCAR-8 ovarian
TK-10 renal = tested on: TK-10 renal
UACC-62 melanoma = tested on: UACC-62 melanoma
MALME-3M melanoma = tested on: MALME-3M melanoma

Structure (SMILES)	GI50 (SF-539 CNS) [µM]	TGI (SF-539 CNS) [µM]	GI50 (KM12 colon) [µM]	TGI (KM12 colon) [µM]	GI50 (SK-MEL-5 melanoma) [µM]	TGI (SK-MEL-5 melanoma) [µM]	GI50 (OVCAR-5 ovarian) [µM]	TGI (OVCAR-5 ovarian) [µM]	GI50 (DU-145 prostate) [µM]	TGI (DU-145 prostate) [µM]	GI50 (SF-268 CNS) [µM]	TGI (SF-268 CNS) [µM]	GI50 (OVCAR-8 ovarian) [µM]	TGI (OVCAR-8 ovarian) [µM]	GI50 (TK-10 renal) [µM]	TGI (TK-10 renal) [µM]	GI50 (UACC-62 melanoma) [µM]	TGI (UACC-62 melanoma) [µM]	GI50 (MALME-3M melanoma) [µM]	TGI (MALME-3M melanoma) [µM]
N#Cc1c(N)nc(N2CCSCC2)c(C#N)c1-c1ccc(O)cc1	18	39	20.2	92.2	12.7	28	16.1	50	27.1	> 100	18.2	56.5	33.6	> 100	30.4	> 100	13	26.2	15.2	94.4
CCOC(=O)c1csc(NC(=O)COc2cccc(/C=C3\CSc4ccccc4C3=O)c2)n1	0.421	1.6	0.289	1.35	5.04	17.3	1.04	5.42	0.409	0.932	0.204	0.502	1.59	6.97	2.11	9.62	2.61	7.02	0.296	1.22
C[C@@H]1CC[C@@H]2[C@@H](C)C[C@H]3[C@@H]4C(C)(C)OC(=O)[C@]4(C)C(=O)[C@@]23C1=O	–	> 100	–	> 100	–	> 100	–	> 100	–	> 100	–	> 100	–	> 100	–	> 100	70	> 100	–	> 100
CC(=O)NC(CCCCN(Cc1ccccc1)C(=O)N(CCCl)N=O)C(=O)NCc1ccccc1 (stereo unspecified)	–	28.5	–	63.7	–	> 100	–	> 87.3	–	> 51.9	–	40.8	–	43.2	–	73.9	–	36.5	–	58.1
COc1cc(-c2ccc(NC(=O)NC3CC3)c(OC)c2)ccc1NC(=O)NC1CC1	4.86	99.8	5.28	> 100	4.84	> 100	> 100	> 100	6.89	> 100	8.21	> 100	6.83	> 100	13.9	> 100	5.71	> 100	4.99	> 100
C/C=C(/C)C(=O)OC1C=C(CO)C(=O)C(OC(=O)C(C)(O)C(C)Cl)C1C(C)C (stereo unspecified)	1.28	2.62	1.75	3.47	1.38	2.75	0.971	2.72	1.13	2.4	2.19	5.08	1.56	5.3	1.55	3.05	0.744	2.05	0.474	1.85
CCCCCCN(C)Cc1ccc(OCCOc2ccc(CN(C)CCCCCC)cc2)cc1	1.37	2.92	1.47	2.84	1.36	2.66	1.46	4.03	2.57	10.5	2.59	11.8	1.41	3.16	1.29	2.6	1.6	3.4	1.13	2.87
NNC(=S)Nc1cccc(Cl)c1	–	> 100	–	> 100	–	> 100	–	> 100	–	> 100	–	> 100	–	> 100	–	> 100	–	> 100	–	> 100
COc1cc2ncn(-c3cc(OCc4ccccc4C(F)(F)F)c(C(C)=O)s3)c2cc1OC	> 25	> 25	> 25	> 25	> 25	> 25	> 25	> 25	> 25	> 25	> 25	> 25	> 25	> 25	> 25	> 25	> 25	> 25	> 16.8	> 25
CCN(CC)CC(C)(C)C(=O)/C=C/c1ccc(/C=C/C(=O)C(C)(C)CN(CC)CC)cc1	–	2.54	–	2.16	–	3.7	–	2.93	–	5.29	–	2.11	–	0.774	–	2.49	–	4.89	–	2.79
Cc1cc(NNC(=O)c2ccccc2O)nc(Nc2nc3ccccc3o2)n1	1.41	11.2	1.01	35.2	1.11	6.72	2.52	15.9	1.83	18.3	1.13	40.8	1.9	12.8	2.73	23.4	0.966	11.4	2.98	15.5
